Results: PMC9848351, “Discovery of new pyridine-quinoline hybrids as competitive and non-competitive PIM-1 kinase inhibitors with apoptosis induction and caspase 3/7 activation capabilities” (Journal of Enzyme Inhibition and Medicinal Chemistry, 2023)

Tests used:
[1] = system: normal human lung fibroblast Wi-38 cell line; assay: MTT cytotoxicity on normal cells; type: cell-based
Summary of the method: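 Wi-38 fibroblasts in DMEM with 10% FBS were seeded at 5x10^3 cells/well, left 24 h to attach, then exposed to serial compound concentrations for 72 h at 37 °C, 5% CO2. MTT was added for 3 h, formazan dissolved in DMSO and absorbance read at 570 nm. IC50 and EC100 (safe dose) were estimated from the concentration series.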

[2] = system: liver cancer cell line (HepG-2); assay: MTT anticancer activity, HepG-2; type: cell-based, human; details: Homo sapiens, HepG2; HepG-2, 72 h, MTT; mean ± SEM
Summary of the method: (§1)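 Cells seeded at 5x10^3/well (Caco-2 in DMEM, others in RPMI-1640, 10% FBS) and exposed to serial compound concentrations for 72 h at 37 °C, 5% CO2, starting 24 h after seeding. MTT (3 h, 37 °C) read at 570 nm after DMSO solubilisation; IC50 calculated from viability.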

[3] = system: Colon cancer cells (Caco-2); assay: MTT anticancer activity, Caco-2; type: cell-based, human
Summary of the method: as §1

[4] = system: prostate cancer cell line (PC-3); assay: MTT anticancer activity, PC-3; type: cell-based, human; details: Homo sapiens, 72 h, PC-3, 72 h, mean ± SEM
Summary of the method: as §1

[5] = system: myeloid leukaemia cell line (NFS-60); assay: MTT anticancer activity, NFS-60; type: cell-based; details: NFS-60, 72 h, MTT; mean ± SEM
Summary of the method: as §1

HepG-2 = assay: Flow cytometric annexin V/PI analysis of apoptosis, HepG-2; type: cell-based, human; details: IC50 of compound, 72 h, mean ± SEM
PC-3 = assay: Flow cytometric annexin V/PI analysis of apoptosis, PC-3; type: cell-based, human; details: IC50 of compound, 72 h, mean ± SEM
Protocol: (§2) The apoptosis-dependent […] was determined by quantification of annexin-stained apoptotic cells using the FITC signal detector (FL1) against the phycoerythrin emission signal detector (FL2) (Supplementary Page S55). […]
(§3) MTT method was used for assaying cell viability 25. Twenty microliters of 5 mg/ml MTT (Sigma, USA) was added to each well and the plate was incubated at […]
(§4) 37 °C for 3 h. […]
(§5) Graphpad Instat software.
(§6) Determination of the anticancer activity
(§7) Anticancer effect of the above-mentioned compounds was evaluated using four human cancer cell lines. Colon cancer cells (Caco-2) were maintained in DMEM (Lonza, USA) containing 10% FBS while myeloid leukemia cell line (NFS-60), liver cancer cell line (HepG-2) and prostate cancer cell line (PC-3) were cultured in RPMI-1640 (Lonza, USA) supplemented with 10% FBS. All cancer cells (5x10^3 cells/well) were seeded in sterile 96-well plates. After 24h, serial concentrations of the tested compounds and Dox were incubated with four cancer cell lines for 72 h at 37 °C in 5% CO2 incubator. MTT method was done as described above. The Graphpad Instat software was used for calculating the half maximal inhibitory concentration (IC50) values. […]
(§8) Flow cytometric analysis of apoptosis
(§9) Caco-2, PC-3 and NFS-60 cell lines. After trypsinization, the untreated and treated cells were incubated with annexin V/PI for 15 min. Then cells were fixed and incubated with streptavidin-fluorescein (5 µg/mL) for 15 min. The apoptosis-dependent anticancer effect was determined by quantification of annexin-stained apoptotic cells using the FITC signal detector (FL1) against the phycoerythrin emission signal detector (FL2). […]

NFS-60 = assay: Flow cytometric annexin V/PI analysis of apoptosis, NFS-60; type: cell-based, human; details: IC50 of compound, 72 h, mean ± SEM
Protocol: as §2, §3, §4, §5, §6, §7, §8, §9

PIM-1 kinase [6] = biological target: T1, PIM-1 kinase (Homo sapiens, UniProt P11309); assay: Mechanism of PIM-1 kinase inhibition, Lineweaver–Burk double-reciprocal plot; type: biochemical; set-up: purchased Promega Corporation #V4032
PIM-1 kinase [7] = biological target: T1, PIM-1 kinase; assay: PIM-1 kinase inhibitory activity (Promega kinase assay kit)
PIM-2 kinase = PIM-2 kinase (Homo sapiens, UniProt Q9P1W9); assay: PIM-2 kinase inhibitory activity (Promega kinase assay kit)
Caco-2 = assay: Flow cytometric annexin V/PI analysis of apoptosis, Caco-2; type: cell-based; details: IC50 of compound, 72 h, mean ± SEM
Protocol: as §2
(§10) MTT method was used for assaying cell viability 25. Twenty microliters of 5 mg/ml MTT (Sigma, USA) was added to each well and the plate was incubated at 37 °C for 3 h. Then MTT solution was removed, 100 µl DMSO was used and the absorbance of each well was measured with a microplate reader ( BMG LabTech, […]
(§11) Germany) at 570 nm. […]
as §5, §6
Anticancer effect of the above-mentioned compounds was evaluated using four human […]
cancer cell lines. […]
All cancer cells (5x10^3 cells/well) were seeded in sterile
96-well plates. After 24h, serial concentrations of the tested compounds and Dox were incubated with four cancer cell lines for 72 h at 37 °C in 5% CO2 incubator. MTT method was done as described above. The Graphpad Instat software was used for calculating the half maximal inhibitory concentration (IC50) values. […]
as §8, §9

[8] = system: HepG-2, Caco-2, NFS-60, and PC-3 cancer cell lines; type: cell-based, human
Protocol: as §2, §10, §11, §5, §6
Anticancer effect of the above-mentioned compounds was evaluated using four human cancer cell lines. Colon cancer cells (Caco-2) were maintained in DMEM (Lonza, USA) containing 10% FBS while myeloid leukemia cell line (NFS-60), liver cancer cell line (HepG-2) and prostate cancer cell line (PC-3) were cultured in RPMI-1640 (Lonza, USA) supplemented with 10% FBS. All cancer cells (5x10^3 cells/well) were seeded in sterile 96-well plates. […]
Caco-2, PC-3 and NFS-60 cell lines. […] The apoptosis-dependent anticancer effect was determined by quantification of annexin-stained apoptotic cells using the FITC signal detector (FL1) against the phycoerythrin emission signal detector (FL2). […]

[9] = system: caspase 3/7 in HepG-2 cells; assay: Caspase 3/7 activation assay (Apo-ONE kit); type: cell-based, human; details: caspase 3/7, relative to untreated HepG2 cells; mean ± SEM
Excerpt: The percentage of caspase 3/7 activation was quantified using the Apo-ONE ® caspase 3/7 kit following the manufacturer’s instructions[27] (Supplementary Page S56).
It’s a fluorescence assay that measures caspase-3 and −7 activities. Caspase 3/7 activators are well known as apoptotic inducers.
Caspase 3/7 activation assay
The Apo-ONE ® caspase 3/7 kit following the manufacturer’s instructions was used for quantifying the percentage of caspase 3/7 activation. The fluorescence substrate present in the kit was cut by caspases to produce fluorescence signal. This signal was measured by the fluorescence omega microplate reader (BMG LabTech, Germany) at 490 nm excitation and 520 nm emission.
Data were expressed as mean ± standard error of the mean (SEM). Statistical significance was estimated by the multiple comparisons Tukey post-hoc analysis of variance (ANOVA) using the SPSS16 program. When p < 0.05, the differences were marked as statistically significant.
PIM-1 and PIM-2 kinase inhibitory activity
PIM-1 and PIM-2 kinase utilizing PIM-1 and PIM-2 Kinase Assay Kit – Promega Corporation catalog #V4032, following the manufacturer’s instructions 26 […]
Information Classification: General

T1 sequence (P11309 whole entry): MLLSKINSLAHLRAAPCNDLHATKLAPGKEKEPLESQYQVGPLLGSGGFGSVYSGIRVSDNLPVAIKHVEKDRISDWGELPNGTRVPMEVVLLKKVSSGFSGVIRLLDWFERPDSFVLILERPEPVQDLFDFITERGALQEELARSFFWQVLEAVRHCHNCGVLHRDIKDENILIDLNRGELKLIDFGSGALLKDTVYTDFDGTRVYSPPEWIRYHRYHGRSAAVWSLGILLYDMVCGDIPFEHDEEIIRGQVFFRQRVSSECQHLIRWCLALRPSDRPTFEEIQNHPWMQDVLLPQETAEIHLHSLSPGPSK
Sequence of PIM-2 kinase (Q9P1W9 whole entry): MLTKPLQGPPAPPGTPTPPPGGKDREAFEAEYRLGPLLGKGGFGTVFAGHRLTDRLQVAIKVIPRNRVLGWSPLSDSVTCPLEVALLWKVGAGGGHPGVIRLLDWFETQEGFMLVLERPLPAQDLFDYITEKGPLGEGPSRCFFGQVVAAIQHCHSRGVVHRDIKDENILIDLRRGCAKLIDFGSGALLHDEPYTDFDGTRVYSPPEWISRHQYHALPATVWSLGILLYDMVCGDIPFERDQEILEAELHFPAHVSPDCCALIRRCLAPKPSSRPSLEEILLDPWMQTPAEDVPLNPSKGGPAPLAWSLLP

Row | SMILES | EC50 ([1]; Homo sapiens, Wi-38, 72 h, MTT, 50% cell viability, mean ± SEM) [nM] | Wi-38 EC100 ([1]; Wi-38, 72 h, MTT, safe dose, 100% cell viability, mean ± SEM) [µM] | IC50 [2] [nM] | IC50 ([3]; Homo sapiens, Caco-2, 72 h, MTT, mean ± SEM) [nM] | Caco-2 LE ([3]; ligand efficiency from IC50 and number of heavy atoms) | Caco-2 LLE ([3]; ligand lipophilic efficiency, potency in terms of lipophilicity) | Caco-2 SI ([3]; selectivity index, Wi-38 versus Caco-2) | IC50 [4] [nM] | IC50 [5] [nM] | total percentage of the apoptotic cell population, HepG-2 (HepG-2) [%] | total percentage of the apoptotic cell population, PC-3 (PC-3) [%] | total percentage of the apoptotic cell population, NFS-60 (NFS-60) [%] | mechanism of PIM-1 kinase inhibition (PIM-1 kinase [6]) | Vmax compared with control (PIM-1 kinase [6]; Y-intercept) | IC50 (PIM-1 kinase [7]) [nM] | IC50 (PIM-2 kinase) [nM] | IC50 ([1]; Homo sapiens, Wi-38, MTT, read-out: IC50 on human lung fibroblasts (Wi-38)) [nM] | total percentage of the apoptotic cell population, Caco-2 (Caco-2) [%] | apoptosis-dependent death / percentage of annexin-stained population cells [8] | Fold increase in caspase activity [9] [fold]
1 | COc1ccc2nc(N3CCCCC3)c(-c3cc(-c4cccc(O)c4)nc(S)c3C#N)cc2c1 [6e, 6-(3-Hydroxyphenyl)-4-(6-methoxy-2-(piperidin-1-yl)quinolin-3-yl)-2-mercaptopyridine-3-carbonitrile] | 155 ± 3 | 0.0277 ± 0.0001 | 12.2 ± 0.1 | 27 ± 2 | 0.30 | 2.73 | 5.741 | 42.9 ± 3 | 53.9 ± 0.1 | 69.02 ± 0.18 | 68.81 ± 0.49 | 68.385 ± 0.54 | competitive inhibitors | the same Vmax in comparison with control | 1100 | 1490 | – | – | – | –
2 | COc1cccc2c1C(=O)c1c(O)c3c(c(O)c1C2=O)C[C@@](O)(C(=O)CO)C[C@@H]3O[C@H]1C[C@H](N)[C@H](O)[C@H](C)O1 [Dox, doxorubicin, reference compound] | – | – | 50.4 | – | – | – | – | – | 33.2 | 39.265 ± 0.81 | 34.59 ± 0.21 | 37.89 ± 0.28 | – | – | – | – | 26.6 | 36.08 ± 0.23 | less than 39% | 1.61 ± 0.088
